Consider 18 compounds from EP4483954A1 (Masarykova Univerzita, priority 2023, dated 2025).

Common to all, as to assay type: biochemical
The target of one assay is T1, DYRK2 (h) (Homo sapiens, UniProt Q92630).
T1 construct: purchased Eurofins (KinaseProfiler)
T1 sequence (Q92630 1-601): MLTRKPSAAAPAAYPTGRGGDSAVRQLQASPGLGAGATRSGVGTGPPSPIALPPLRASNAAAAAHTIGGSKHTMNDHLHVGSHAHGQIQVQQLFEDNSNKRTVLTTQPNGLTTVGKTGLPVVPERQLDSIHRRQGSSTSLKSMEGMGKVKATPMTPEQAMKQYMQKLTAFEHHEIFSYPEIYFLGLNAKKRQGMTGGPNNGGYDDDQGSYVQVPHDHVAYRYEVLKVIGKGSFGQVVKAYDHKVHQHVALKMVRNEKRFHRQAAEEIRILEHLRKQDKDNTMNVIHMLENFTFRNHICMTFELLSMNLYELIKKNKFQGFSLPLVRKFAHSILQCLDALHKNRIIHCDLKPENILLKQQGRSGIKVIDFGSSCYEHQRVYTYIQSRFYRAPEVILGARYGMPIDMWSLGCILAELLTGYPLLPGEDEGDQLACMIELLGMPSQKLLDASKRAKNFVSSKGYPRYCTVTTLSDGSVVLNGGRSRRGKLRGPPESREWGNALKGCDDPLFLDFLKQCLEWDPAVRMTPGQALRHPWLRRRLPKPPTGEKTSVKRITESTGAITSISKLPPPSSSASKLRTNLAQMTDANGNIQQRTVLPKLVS
The assay is described as follows: radiometric kinase assay (KinaseProfiler, Eurofins), DYRK2. The note with it: in vitro radiometric kinase assay, tested at 1 nM to 10 000 nM, no pre-incubation; read-out: inhibitory activities (IC50 values) DYRK2. How it is done: (§1) The compounds were profiled in the radiometric assays (KinaseProfiler, Eurofins).
(§2) All compounds were prepared to 50x final assay concentration in 100% DMSO. This working stock of the compound was added to the assay well as the first component in the reaction, followed by the remaining components as detailed in the general assay protocols below. There was no pre-incubation step between the compound and the kinase prior to initiation of the reaction.
DYRK2 (h) was incubated with 8 mM MOPS pH 7.0, 0.2 mM EDTA, 2 mg/mL casein, 10 mM magnesium acetate and γ-^33P-ATP (specific activity and concentration as required). The reaction was initiated by the addition of the Mg/ATP mix. After incubation for 40 minutes at room temperature, the reaction was stopped by the addition of phosphoric acid to a concentration of 0.5%. An aliquot of the reaction was then spotted onto a filter and washed four times for 4 minutes in 0.425% phosphoric acid and once in methanol prior to drying and scintillation counting.
(§3) Kinase activity data were expressed as the percent remaining kinase activity in tested samples compared to the vehicle (DMSO) reactions. The compounds were tested at the following concentrations: 1 nM, 3 nM, 10 nM, 30 nM, 100 nM, 300 nM, 1000 nM, 3000 nM, and 10 000 nM; IC50 values and curve fits were then obtained.

In the next assay the target is T2, Haspin (h) (Homo sapiens, UniProt Q8TF76).
T2 construct: purchased Eurofins (KinaseProfiler)
T2 sequence (Q8TF76 1-798): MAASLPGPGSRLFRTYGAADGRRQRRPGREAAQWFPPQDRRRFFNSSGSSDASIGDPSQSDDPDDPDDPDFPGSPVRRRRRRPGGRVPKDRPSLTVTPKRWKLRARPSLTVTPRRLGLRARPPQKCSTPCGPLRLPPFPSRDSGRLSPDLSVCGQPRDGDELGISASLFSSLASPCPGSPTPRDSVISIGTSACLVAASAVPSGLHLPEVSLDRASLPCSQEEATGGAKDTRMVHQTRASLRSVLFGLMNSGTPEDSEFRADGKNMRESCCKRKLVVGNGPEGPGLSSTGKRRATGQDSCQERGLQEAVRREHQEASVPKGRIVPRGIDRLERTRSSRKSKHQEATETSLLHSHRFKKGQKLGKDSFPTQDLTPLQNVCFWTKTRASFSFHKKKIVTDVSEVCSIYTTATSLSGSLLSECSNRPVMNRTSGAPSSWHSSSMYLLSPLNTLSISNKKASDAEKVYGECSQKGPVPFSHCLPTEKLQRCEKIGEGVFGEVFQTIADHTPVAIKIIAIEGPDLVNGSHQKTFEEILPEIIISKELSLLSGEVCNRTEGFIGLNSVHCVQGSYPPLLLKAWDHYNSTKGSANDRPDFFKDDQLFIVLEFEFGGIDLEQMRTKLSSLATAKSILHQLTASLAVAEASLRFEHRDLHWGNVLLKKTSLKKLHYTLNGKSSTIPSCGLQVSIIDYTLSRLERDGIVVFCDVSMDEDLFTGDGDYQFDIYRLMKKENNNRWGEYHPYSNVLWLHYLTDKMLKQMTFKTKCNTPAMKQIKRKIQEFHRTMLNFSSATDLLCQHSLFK
The assay is described as follows: radiometric kinase assay (KinaseProfiler, Eurofins), Haspin. Conditions: in vitro radiometric kinase assay, tested at 1 nM to 10 000 nM, no pre-incubation; read-out: inhibitory activities (IC50 values) Haspin. The method, then: as §1
(§4) Briefly, kinases were diluted in the buffer shown below prior to addition to the reaction mix: • CDKL3, TAF1L: 20 mM Tris/HCl pH 8.5, 0.2 mM EDTA, 0.1% β-mercaptoethanol, 0.01% Brij-35, 5% glycerol, 1 mg/ml BSA; • Haspin: 15 mM MOPS, 0.75 mM EDTA, 0.0075% Brij-35, 3.75% Glycerol, 150 mM NaCl, 0.1% β-mercaptoethanol, 1 mg/mLBSA; • CDKL4, CLK2, PIM1, TRB2: […], 1 mM EDTA, 0.01% Brij-35, 5% Glycerol, 0.1% β-mercaptoethanol, 1 mg/mL BSA.
as §2
Haspin (h) was incubated with 8 mM MOPS pH 7.0, 0.2 mM EDTA, 500 µM RARTLSFAEPG (SEQ ID NO. 3), 10 mM magnesium acetate and γ-^33P-ATP (specific activity and concentration as required). The reaction was initiated by the addition of the Mg/ATP mix. After incubation for 40 minutes at room temperature, the reaction was stopped by the addition of phosphoric acid to a concentration of 0.5%. An aliquot of the reaction was then spotted onto a filter and washed four times for 4 minutes in 0.425% phosphoric acid and once in methanol prior to drying and scintillation counting.
as §3

The target of the next assay is T3, PIM1 (h) (Homo sapiens, UniProt P11309).
T3 construct: purchased Eurofins (KinaseProfiler)
The experiment in a line: radiometric kinase assay (KinaseProfiler, Eurofins), PIM1. Conditions: in vitro radiometric kinase assay, tested at 1 nM to 10 000 nM, no pre-incubation; read-out: inhibitory activities (IC50 values) PIM1. The method, then: as §1, §4, §2
PIM1 (h) was incubated with 8 mM MOPS pH 7.0, 0.2 mM EDTA, 100 µM KKRNRTLTV (SEQ ID NO. 4), 10 mM magnesium acetate and γ-^33P-ATP (specific activity and concentration as required). The reaction was initiated by the addition of the Mg/ATP mix. After incubation for 40 minutes at room temperature, the reaction was stopped by the addition of phosphoric acid to a concentration of 0.5%. An aliquot of the reaction was then spotted onto a filter and washed four times for 4 minutes in 0.425% phosphoric acid and once in methanol prior to drying and scintillation counting.
as §3

T3 sequence (P11309 whole entry): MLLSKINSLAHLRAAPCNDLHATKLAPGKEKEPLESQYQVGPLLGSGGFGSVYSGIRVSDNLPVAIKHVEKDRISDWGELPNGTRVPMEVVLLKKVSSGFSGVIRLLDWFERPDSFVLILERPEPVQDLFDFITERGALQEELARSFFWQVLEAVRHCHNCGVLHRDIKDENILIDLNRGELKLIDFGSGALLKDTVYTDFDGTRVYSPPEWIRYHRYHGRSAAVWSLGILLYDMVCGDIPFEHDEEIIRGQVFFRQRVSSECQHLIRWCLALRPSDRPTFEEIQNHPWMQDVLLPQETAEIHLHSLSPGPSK

`Cn1cc(-c2ccc3scc(-c4ccnc(C#N)c4)c3n2)cn1`: the half-maximal inhibitory concentration (IC50) (as a rule, the concentration that inhibits the measured activity by half) was in the range of 500 to 3000 nM at DYRK2 (h), 100 to 499 nM on Haspin (h) and 500 to 3000 nM at PIM1 (h).
In the case of `Cn1nccc1-c1ccc2scc(-c3ccncc3)c2n1` [Preparative Example 90, 5-(1-methyl-1H-pyrazol-5-yl)-3-(pyridin-4-yl)thieno[3,2-b]pyridine], the IC50 on DYRK2 (h) lay in the range of 3000 to 10000 nM; at Haspin (h), 500 to 3000 nM; at PIM1 (h), 3000 to 10000 nM.
As to `Cn1cc(-c2ccc3scc(-c4cncs4)c3n2)cn1` [Preparative Example 69, 5-(1-methyl-1H-pyrazol-4-yl)-3-(thiazol-5-yl)thieno[3,2-b]pyridine], the values for the IC50 on DYRK2 (h), on Haspin (h) and at PIM1 (h) were 100 to 499 nM, 20 to 99 nM and 100 to 499 nM, respectively.
For `Cn1cc(-c2ccc3scc(-c4ccns4)c3n2)cn1` [Preparative Example 67, 3-(isothiazol-5-yl)-5-(1-methyl-1H-pyrazol-4-yl)thieno[3,2-b]pyridine], the IC50 lay within 100 to 499 nM on DYRK2 (h), 20 to 99 nM at Haspin (h) and 100 to 499 nM on PIM1 (h).
Regarding `Cc1cc2scc(-c3ccncc3)c2nc1-c1cnn(C)c1` [Preparative Example 150, 6-methyl-5-(1-methyl-1H-pyrazol-4-yl)-3-(pyridin-4-yl)thieno[3,2-b]pyridine], the values for the IC50 at DYRK2 (h), on Haspin (h) and at PIM1 (h) were 3000 to 10000 nM, 500 to 3000 nM and 500 to 3000 nM, respectively.
As to `Cc1cnccc1-c1csc2ccc(-c3cnn(C)c3)nc12` [Preparative Example 32, 5-(1-methyl-1H-pyrazol-4-yl)-3-(3-methylpyridin-4-yl)thieno[3,2-b]pyridine], the concentration for half-maximal inhibition (IC50) at DYRK2 (h) lay within 3000 to 10000 nM; on Haspin (h) it was 3000 to 10000 nM; at PIM1 (h), 500 to 3000 nM.
On to `Cn1cc(-c2ccc3scc(-c4ccnnc4)c3n2)cn1` [Preparative Example 40, 5-(1-methyl-1H-pyrazol-4-yl)-3-(pyridazin-4-yl)thieno[3,2-b]-pyridine], for which the concentration for half-maximal inhibition (IC50) on DYRK2 (h) is 500 to 3000 nM; at Haspin (h), 100 to 499 nM; at PIM1 (h), 500 to 3000 nM.
Take `Cn1cc(-c2ccc3scc(-c4cnn(C)c4)c3n2)cn1` [Preparative Example 63, 3,5-bis(1-methyl-1H-pyrazol-4-yl)thieno[3,2-b]pyridine]: the IC50 on DYRK2 (h), at Haspin (h) and at PIM1 (h) was 100 to 499 nM each time.
Turning to `COc1cc(-c2csc3ccc(-c4cnn(C)c4)nc23)ccn1` [Preparative Example 17, 3-(2-methoxypyridin-4-yl)-5-(1-methyl-1H-pyrazol-4-yl)thieno[3.2-b]pyridine], the concentration for half-maximal inhibition (IC50) at DYRK2 (h), on Haspin (h) and on PIM1 (h) was 100 to 499 nM each time.
`Cn1cncc1-c1ccc2scc(-c3ccncc3)c2n1` [Preparative Example 91, 5-(1-methyl-1H-imidazol-5-yl)-3-(pyridin-4-yl)thieno[3,2-b]pyridine]: the half-inhibitory concentration (IC50) fell in the range of 500 to 3000 nM at DYRK2 (h), 20 to 99 nM on Haspin (h) and 100 to 499 nM at PIM1 (h).
The like results for `Cn1ccc(Nc2ccc3scc(-c4ccncc4)c3n2)n1` [Preparative Example 99, N-(1-methyl-1H-pyrazol-3-yl)-3-(pyridin-4-yl)thieno[3,2-b]pyridin-5-amine] were, in that order, 3000 to 10000 nM, 20 to 99 nM and 500 to 3000 nM.
Regarding `Cn1cc(-c2cc(Cl)c3scc(-c4ccncc4)c3n2)cn1` [Preparative Example 162, 7-chloro-5-(1-methyl-1H-pyrazol-4-yl)-3-(pyridin-4-yl)thieno[3,2-b]pyridine], the IC50 on DYRK2 (h) is 3000 to 10000 nM; at Haspin (h) it was 500 to 3000 nM; at PIM1 (h), 500 to 3000 nM.
In the case of `Cn1ccc(-c2ccc3scc(-c4ccncc4)c3n2)n1` [Preparative Example 86, 5-(1-methyl-1H-pyrazol-3-yl)-3-(pyridin-4-yl)thieno[3,2-b]pyridine], the 50% inhibitory concentration (IC50) at DYRK2 (h) lay in the range of 3000 to 10000 nM; on Haspin (h), 20 to 99 nM; on PIM1 (h) it was 3000 to 10000 nM.
On to `Cc1nn(C)c(C)c1-c1ccc2scc(-c3ccncc3)c2n1` [Preparative Example 85, 3-(pyridin-4-yl)-5-(1,3,5-trimethyl-1H-pyrazol-4-yl)thieno[3,2-b]pyridine], for which the IC50 on DYRK2 (h) lay in the range of 3000 to 10000 nM; on Haspin (h), 500 to 3000 nM; at PIM1 (h), 3000 to 10000 nM.
As for `Cc1cc(-c2cnn(C)c2)nc2c(-c3ccncc3)csc12` [Preparative Example 157, 7-methyl-5-(1-methyl-1H-pyrazol-4-yl)-3-(pyridin-4-yl)thieno[3,2-b]pyridine], the IC50 at DYRK2 (h) is 3000 to 10000 nM; on Haspin (h), 500 to 3000 nM; at PIM1 (h), 3000 to 10000 nM.
For `Cn1ncc(-c2ccc3scc(-c4ccncc4)c3n2)c1CC1CC1` [Preparative Example 82, 5-(5-(cyclopropylmethyl)-1-methyl-1H-pyrazol-4-yl)-3-(pyridin-4-yl)thieno[3,2-b]pyridine], the IC50 is 3000 to 10000 nM on DYRK2 (h), 100 to 499 nM at Haspin (h) and 20 to 99 nM on PIM1 (h).
In the same order, the values of `Cn1cc(-c2ccc3scc(-c4ccnc(CN)c4)c3n2)cn1` [Preparative Example 28, (4-(5-(1-methyl-1H-pyrazol-4-yl)thieno[3,2-b]pyridin-3-yl)pyridin-2-yl)methanamine] are 100 to 499 nM, 20 to 99 nM and 100 to 499 nM.
The like results for `Cn1cc(-c2ccc3scc(-c4ccncc4C#N)c3n2)cn1` [Preparative Example 34, 4-(5-(1-methyl-1H-pyrazol-4-yl)thieno[3,2-b]pyridin-3-yl)nicotino-nitrile] were, in that order, 500 to 3000 nM, 500 to 3000 nM and 500 to 3000 nM.
